Data published in patent publication US20250152613A1, “COMPOSITIONS AND METHODS FOR COVID-19 TREATMENT” (101 THERAPEUTICS LTD., priority 2022, published 2025).

Tests used:
[1] = test system: healthy volunteers
[2] = test system: bleomycin-induced PF mice model; assay: bleomycin-induced pulmonary fibrosis (PF) mice model; type: in vivo, C57BL/6 mice
Source text: Post COVID-19 pulmonary fibrosis (PF) is defined as the presence of persistent and different fibrotic tomographic changes, often combined with impairment in pulmonary function tests. The pathogenesis of post-COVID-19 PF is partially known and likely multifactorial. Excessive production of reactive oxygen species and non-protective mechanical ventilation are potential triggers for post-COVID-19 PF. To explore the beneficial effect of compound 1 in pulmonary fibrosis, a bleomycin-induced PF mice model was utilized. Bleomycin is known for its ability to induce lung injury resulting in an acute inflammatory response, and the inflammatory phase is followed by fibrotic changes. In this model, direct administration of bleomycin to the lungs decreases survival of treated mice, due to vast pulmonary damage. The study was performed in 5 treatment groups of C57BL/6 mice (n=10-12 per group) and included early or late treatment with compound 1 (1 mg/mouse), early treatment with dexamethasone (DEX) in an amount of 0.45 mg/mouse, vehicle, and naïve control groups. Early treatment was initiated on day 1, on the same day as bleomycin administration. Late treatment was initiated on day 14. The test items were injected in the vehicle, dexamethasone and Compound 1 early treatment groups, on days 1, 2, 3, 7, 14, 21 and 28. In the late treatment group, Compound 1 was administered on days 14, 15, 16, 21, 28 and 31. The test items were injected intravenously through the tail vein after pulmonary fibrosis model induction (bleomycin was induced by intratracheal administration of bleomycin (3.5 U/kg)). Animals were monitored for morbidity, mortality, body weight, and clinical signs. Selected clinical signs (i.e., physical appearance, activity, ability to respond to external stimulus, eyes, and respiration quality) were scored to provide a clinical score. Cytokine levels in BALF (Day 33) and serum (Days 17 & 32) were determined.

[3] = test system: moderate COVID-19 patients; assay: Phase II/Phase III study of Compound 1 Vs Dexamethasone for moderate COVID-19 with Standard of Care; type: in vivo, human; details: expected
Procedure: A prospective, randomized, multicenter, parallel group, double-blind, adaptive Phase II/Phase III study to evaluate safety and efficacy of Compound 1 Vs Dexamethasone for moderate COVID-19 disease along with Standard of Care is performed. The total duration of treatment administration for all patients is 3 days. The endpoints of the study are to evaluate efficacy of Compound 1 versus dexamethasone in moderate COVID-19 patients.
Compound 1 is contained in vials, each vial containing 20 mg of Compound 1 to be reconstituted in saline (0.9% NaCl) for bolus intravenous (IV) injection of 5 ml of solution.
The study is designed to determine rate of treatment-emergent adverse events (AE) and serious adverse events (SAE) including changes in clinical condition, vital signs and laboratory parameters.
Other endpoints of the study include: lowering mortality 28 or 60 days from administration; lowering rate of Intensive care units (ICU) admission; lowering mechanical ventilation or vasopressor therapy (28 days follow-up); improved clinical recovery rate [Time Frame: Day 10]-Proportion of patients who recovered within 10 days for which recovery is defined when the patient improves by 2 points in 11-point ordinal scale; an improvement in temperature, heart rate and oxygen saturation on days 1, 2, 4 and 7; decrease in viral load relative to admission levels according to RT-PCR from nasopharyngeal swab on days 3, 5 and 10; changes in levels of CRP, ferritin and CBC with differential; change in cytokine profile and lymphocyte sub-populations; and measurement of ACTH and morning cortisol levels.
Approximately 318 eligible patients are randomized in a 1:1 ratio to one of 2 treatment groups. Group 1: Compound 1, 20 mg per day+Standard of care. Group 2: Dexamethasone 6 mg+Standard of care.
Total expected study duration is approximately 60 days consisting of: a screening period: 7 days (Day-7 to Day 1) prior to randomization. Treatment period: Day 1 to Day 3. End of treatment assessment: Day 3 (for patients receiving Compound 1) and Day X (for Dexamethasone arm, based on investigator' discretion). […]

[4] = according to the literature; cited from earlier work
[5] = test system: COVID-19 patients; details: diabetics; RECOVERY trial (Rayman et al. 2021); cited from earlier work
[6] = 10-30 mg i.v., single and 3 day repeated
[7] = out of 23 possibly or probably related AEs
[8] = early treatment from day 1, i.v., compound 1 1 mg/mouse, DEX 0.45 mg/mouse, day 33, mean±standard deviation
[9] = late treatment from day 14, i.v., 1 mg/mouse, day 33, mean±standard deviation
[10] = late treatment with Compound 1, day 33
[11] = Compound 1 20 mg per day i.v. for 3 days + Standard of care vs Dexamethasone 6 mg

Compound: C[C@@H]1C[C@H]2[C@@H]3CCC4=C/C(=N/OCCCO[C@H]5O[C@H](CO)[C@@H](O)[C@H](O)[C@@H]5O)C=C[C@]4(C)[C@@]3(F)[C@@H](O)C[C@]2(C)[C@@]1(O)C(=O)CO [Compound 1, 1-((8S,9R,10S,11S,13S,14S,16R,17R,E)-9-fluoro-11,17-dihydroxy-10,13,16-trimethyl-3-((3-(((2S,3S,4S,5S,6R)-3,4,5-trihydroxy-6-(hydroxymethyl)tetrahydro-2H-pyran-2-yl)oxy)propoxy)imino)-6,7,8,9,10,11,12,13,14,15,16,17-dodecahydro-3H-cyclopenta[a]phenanthren-17-yl)-2-hydroxyethan-1-one]
- correlation between dose escalation and AEs frequency or severity ([1]; 10, 20, 30 mg i.v.): no correlation
- AE reported after exposure to Investigational Product [1, 6]: 29
- AEs possibly related to the IP [1, 6]: 13
- AEs probably related to the IP [1, 6]: 10
- Dose-Limiting Toxicities (DLTs) [1, 6]: No DLTs
- Serious Adverse Events (SAEs) or severe AEs [1, 6]: No Serious Adverse Events (SAEs) or severe AEs
- cases of hyperglycemia [1, 6]: single case
- possibly or probably related AEs, total [1, 6]: 23
- post exposure AEs assessed as not related [1, 6]: 6
- total Adverse Events (AE) reported during the study ([1]; 15 healthy participants, 10, 20, 30 mg single i.v. doses and 30 mg once a day for 3 days, includes 4 before exposure): 33
- blood glucose changes after administration ([1]; 4 hours post any of the 24 administrations): no changes
- severity of adverse events ([1]; all events): mild to moderate
- severity of the hyperglycemia event ([1]; one individual): mild and transient
- Blood Glucose after increase ([1]; one individual, increased from 97): 105 mg/dL
- anxiety, number [1, 7]: 1
- anxiety, percent [1, 7]: 4.34%
- chemistry AEs, number [1, 7]: 8
- chemistry AEs, percent [1, 7]: 34.8%
- fatigue reports, number [1, 7]: 2
- fatigue reports, percent [1, 7]: 8.7%
- hematology AEs, number [1, 7]: 6
- hematology AEs, percent [1, 7]: 26.1%
- hypertension, number [1, 7]: 1
- hypertension, percent [1, 7]: 4.34%
- insomnia, number [1, 7]: 2
- insomnia, percent [1, 7]: 8.7%
- noncardiac chest pain, number [1, 7]: 1
- noncardiac chest pain, percent [1, 7]: 4.34%
- skin rash, number [1, 7]: 2
- skin rash, percent [1, 7]: 8.7%
- % Fibrosis - Digital morphometry [2, 8]: 8.25 ± 1.26%
- Fibrosis score (MT) [2, 8]: 2.25 ± 0.5
- Pathological score (H&E) [2, 8]: 2.5 ± 0.58
- % Fibrosis - Digital morphometry [2, 9]: 5.2 ± 1.1%
- Fibrosis score (MT) [2, 9]: 2 ± 0.7
- Pathological score (H&E) [2, 9]: 2 ± 0.7
- mortality rate (FIG. 1) ([2]; late treatment from day 14, compared with DEX and Compound 1 early groups, similar to naïve): lower mortality rate
- overall effect on mortality and disease progression vs early treatment with DEX or Compound 1 ([2]; late treatment with Compound 1): more profound effect
- lung fibrosis by histopathological evaluation vs. vehicle control [2, 10]: reduction in lung fibrosis
- pathological and fibrosis scores and percentage of lung fibrosis compared to DEX treatment [2, 10]: slightly lower
- hyperglycemia relative to the dexamethasone group [3, 11]: lower
- recovery from moderate COVID-19 relative to the dexamethasone group [3, 11]: enhanced
- mortality ([3]; Compound 1 20 mg per day i.v. for 3 days + Standard of care): lower mortality

Compound: C[C@@H]1C[C@H]2[C@@H]3CCC4=CC(=O)C=C[C@]4(C)[C@@]3(F)[C@@H](O)C[C@]2(C)[C@@]1(O)C(=O)CO [DEX, dexamethasone, reference compound]
- % Fibrosis - Digital morphometry ([2]; mouse, in vivo, iv): 6 ± 1.41%
- Fibrosis score (MT) ([2]; mouse, in vivo, iv): 2.25 ± 0.5
- Pathological score (H&E) ([2]; mouse, in vivo, iv): 2.25 ± 0.5
- most frequently reported adverse effect [4]: insomnia
- blood glucose levels [5]: significantly elevated
